Laboratory results taken from patent publication US5324725A, “7-fused 2-(piperazinoalkyl) indole derivatives, intermediates and compositions thereof” (Kali-Chemie Pharma GmbH, priority 1991, dated 1994).
Like-named read-outs stand apart in the source and are kept apart here.

Target: T1, histamine (H1) receptor (Cavia porcellus, UniProt P31389)
T1 construct: isolated smooth muscle of the guinea-pig ileum; from tissue; host or cells: isolated ileum segments of Dunkin Hartley guinea-pigs
Assay: Antihistamine (H1) effect: inhibition of histamine-induced contractions of isolated guinea-pig ileum in vitro
Format: cell-based, guinea-pig (Dunkin Hartley)
Settings: histamine 5 × 10^-6 mol/l, test substance 10^-6 mol/l
Description: 3. Investigation of the antihistamine (H1) effect based on histamine (H1) receptor antagonism in vitro.
To investigate the histamine (H1) receptor antagonism of the substances, the inhibitory effect thereof on histamine-induced contractions of the smooth musculature of isolated organ was determined in vitro. Isolated strips of organ from the ileum were used. In an organ bath of physiological saline solution, they react to addition of histamine by contracting. Addition of the compounds of the invention decreases this histamine-induced contraction of the smooth musculature of the ileum strips. The extent of decrease of the contraction is an indication of the antihistamine (H1) activity of the compounds. The investigation is carried out analogously to the method originally described by Magnus (Pflugers Arch. 102, 123 (1904)).
Experimental description of the determination of the inhibitory effect on the contraction induced by a 5×10^-6 molar histamine concentration on isolated smooth muscle of the guinea-pig ileum.
For the test, 1.5 cm long segments of the ileum from Dunkin Hartley guinea-pigs having a body weight of 300-500 g were employed. Each strip was placed in an organ bath of 10 ml of Krebs-Henseleit physiological saline solution and attached to a customary apparatus for isotonically measuring changes in length of the ileum strip (automated Celaster measuring apparatus) so that the tissue is under a tension of 1 g. The bath was kept at a pH of 7.4 and aerated with a mixture of 5% CO2 and 95% O2. After an equilibration phase, an isotonic contraction of the tissue was produced by adding histamine in a final concentration of 5×10^-6 mol/l and was washed out again after a contact time of 30 seconds. Only those tissues in which three reproducible contractions were obtained at 10 minute intervals were used in the subsequent test. The test substances were then added in a final concentration of 10^-6 mol/l, and after a contact time of 30 seconds histamine was again added up to a concentration of 5×10^-6 mol/l. The contractions which occurred were measured over the course of 30 seconds. The tissue was then washed several times over a period of 10 minutes. A contraction challenge was then induced again by addition of histamine. The contractions which occurred were again measured over 30 seconds. The difference between the amplitude of the contraction obtained by histamine addition alone and the amplitude of the contraction obtained in the presence of the test substance was determined and calculated as % inhibition.
The inhibitory effects on the contractions induced by histamine 30 seconds after administration of the test substance and on the contractions induced by addition of histamine 10 minutes afterward are given in the table.

[1] = after 30 sec., read-out: in vitro (H1) receptor antagonism % inhibitory effect on histamine-induced contractions of the Ileum, after 30 sec.
[2] = after 10 min. (after washing), read-out: in vitro (H1) receptor antagonism % inhibitory effect on histamine-induced contractions of the Ileum, after 10 min.

T1 sequence (P31389 whole entry): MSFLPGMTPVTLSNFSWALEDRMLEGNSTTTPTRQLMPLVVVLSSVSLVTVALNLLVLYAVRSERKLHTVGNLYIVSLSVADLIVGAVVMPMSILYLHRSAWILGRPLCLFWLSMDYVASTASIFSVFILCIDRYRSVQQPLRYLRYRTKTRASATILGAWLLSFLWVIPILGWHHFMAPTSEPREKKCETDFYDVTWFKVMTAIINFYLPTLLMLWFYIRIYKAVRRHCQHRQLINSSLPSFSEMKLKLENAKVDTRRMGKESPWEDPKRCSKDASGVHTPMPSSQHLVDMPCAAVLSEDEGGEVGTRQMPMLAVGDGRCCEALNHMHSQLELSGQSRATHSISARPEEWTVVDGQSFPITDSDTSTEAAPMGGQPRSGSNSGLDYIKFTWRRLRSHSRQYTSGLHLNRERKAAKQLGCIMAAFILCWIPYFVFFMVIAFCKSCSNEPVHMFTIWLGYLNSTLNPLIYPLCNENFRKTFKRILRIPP

SMILES	inhibition at 1 µM [1]	inhibition at 1 µM [2]	in vitro (H1) receptor antagonism % inhibitory effect on histamine-induced contractions of the Ileum, after 30 sec. (after 30 sec.)	in vitro (H1) receptor antagonism % inhibitory effect on histamine-induced contractions of the Ileum, after 10 min. (after 10 min. (after washing))
CCCCC1CCc2cc(O)cc3c(CCN4CCN(c5cc(C)ccn5)CC4)c(C)n1c23 (stereo not shown) [Example 76]	3%	67%		
Cc1ccnc(N2CCN(CCc3c(C)n4c5c(cc(C(=O)C(C)C)cc35)CCC4)CC2)c1 [Example 27, 5,6-dihydro-2-methyl-8-(2-methyl-1-oxopropyl)-1-{2-[4-(4-methylpyridin-2-yl)piperazin-1-yl]ethyl}-4H-pyrrolo-[3,2,1-ij]quinoline]	33%	92%		
CNc1cc2c3c(c1)c(CCN1CCN(c4cc(C)ccn4)CC1)c(C)n3CCC2 [Example 80]			15%	63%
CCCCC1CCc2cc(OC)cc3c(CCN4CCN(c5cc(C)ccn5)CC4)c(C)n1c23 (stereo not shown) [Example 63]	17%	67%		
Cc1ccnc(N2CCN(CCc3c(C)n4c5c(cc([N+](=O)[O-])cc35)CCC4)CC2)c1 [Example 10, 2-Methyl-8-nitro-1-{2-[4-(4-methylpyridin-2-yl)-piperazin-1-yl]ethyl}-5,6-dihydro-4H-pyrrolo[3,2,1-ij]quinoline]	47%	92%		
COc1ccc(C2CCc3cc(OC)cc4c(CCN5CCN(c6cc(C)ccn6)CC5)c(C)n2c34)cc1 (stereo not shown) [Example 65]	21%	48%		
Cc1c(CCN2CCN(c3ccccn3)CC2)c2cccc3c2n1CCC3 [Example 37]	24%	61%		
Cc1ccnc(N2CCN(CCc3c(C)n4c5c(ccc(C(O)C(C)C)c35)SCC4)CC2)c1 (stereo not shown) [Example 90]	19%	88%		
Cc1ccnc(N2CCN(CCc3c(C)n4c5c(cc(C(=O)C6CCCCC6)cc35)CCC4)CC2)c1 [Example 83]	12%	52%		
CC(=O)Oc1cc2c3c(c1)c(CCN1CCN(c4cc(C)ccn4)CC1)c(C)n3CCC2 [Example 24, 8-Acetoxy-5,6-dihydro-2-methyl-1-{2-[4-(4-methyl-pyridin-2-yl)piperazin-1-yl]ethyl}-4H-pyrrolo[3,2,1-ij]quinoline]	81%	94%		
CC(C)=Cc1cc2c3c(c1)c(CCN1CCN(c4cc(C)ccn4)CC1)c(C)n3CCC2 [Example 26, 5,6-Dihydro-2-methyl-8-(2-methylprop-1-enyl)-1-{2-[4-(4-methylpyridin-2-yl)piperazin-1-yl]ethyl}-4H-pyrrolo[3,2,1-ij]quinoline]	15%	42%		
Cc1ccnc(N2CCN(CCc3c(C)n4c5c(cc(Br)cc35)CCC4)CC2)c1 [Example 9, 8-Bromo-2-methyl-1-{2-[4-(4-methylpyridin-2-yl)piperazin-1-yl]ethyl}-5,6-dihydro-4H-pyrrolo[3,2,1-ij]quinoline]	10%	78%		
CC(=O)c1cc2c3c(c1)c(CCN1CCN(c4cc(C)ccn4)CC1)c(C)n3CCC2 [Example 67]	59%	93%		
Cc1ccnc(N2CCN(CCc3c(C)n4c5c(ccc(C(=O)C(C)C)c35)SCC4)CC2)c1 [Example 91]	16%	83%		
Cc1ccnc(N2CCN(CCc3c(C)n4c5c(cccc35)CC4C)CC2)c1 (stereo not shown) [Example 33]	45%	96%		
Cc1ccnc(N2CCN(CCc3c(C)n4c5c(cc(NC(=O)c6ccccc6)cc35)CCC4)CC2)c1 [Example 25, 8-Benzoylamino-5,6-dihydro-2-methyl-1-{2-[4-(4-methylpyridin-2-yl)piperazin-1-yl]-ethyl}-4H-pyrrolo[3,2,1-ij]quinoline]	10%	77%		
CCc1c(CCN2CCN(c3cc(C)ccn3)CC2)c2cccc3c2n1CCC3 [Example 15, 2-Ethyl-5,6-dihydro-1-{2-[4-(4-methylpyridin-2-yl)piperazin-1-yl]ethyl}-4H-pyrrolo[3,2,1-ij]quinoline]	29%	78%		
